Key:
F508delCFTR [1] = molecular target: T1, F508delCFTR (Homo sapiens, UniProt P13569, DEL508-508); assay: Cell Surface Expression-Horse Radish Peroxidase (CSE-HRP) assay, test compound without co-corrector; type: cell-based; settings: for EC50: test compound without co-corrector; for Emax: maximum at any tested concentration, without co-corrector;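 for Emax: percent of on-plate 2 µM positive control corrector response over DMSO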
T1 construct: expressed in transfected cells; host or cells: CFBE41o- human lung-derived epithelial cells (CFBE41o-F508delCFTR-HRP), doxycycline-inducible
T1 sequence (P13569 with tags, fused parts or gaps DEL508-508): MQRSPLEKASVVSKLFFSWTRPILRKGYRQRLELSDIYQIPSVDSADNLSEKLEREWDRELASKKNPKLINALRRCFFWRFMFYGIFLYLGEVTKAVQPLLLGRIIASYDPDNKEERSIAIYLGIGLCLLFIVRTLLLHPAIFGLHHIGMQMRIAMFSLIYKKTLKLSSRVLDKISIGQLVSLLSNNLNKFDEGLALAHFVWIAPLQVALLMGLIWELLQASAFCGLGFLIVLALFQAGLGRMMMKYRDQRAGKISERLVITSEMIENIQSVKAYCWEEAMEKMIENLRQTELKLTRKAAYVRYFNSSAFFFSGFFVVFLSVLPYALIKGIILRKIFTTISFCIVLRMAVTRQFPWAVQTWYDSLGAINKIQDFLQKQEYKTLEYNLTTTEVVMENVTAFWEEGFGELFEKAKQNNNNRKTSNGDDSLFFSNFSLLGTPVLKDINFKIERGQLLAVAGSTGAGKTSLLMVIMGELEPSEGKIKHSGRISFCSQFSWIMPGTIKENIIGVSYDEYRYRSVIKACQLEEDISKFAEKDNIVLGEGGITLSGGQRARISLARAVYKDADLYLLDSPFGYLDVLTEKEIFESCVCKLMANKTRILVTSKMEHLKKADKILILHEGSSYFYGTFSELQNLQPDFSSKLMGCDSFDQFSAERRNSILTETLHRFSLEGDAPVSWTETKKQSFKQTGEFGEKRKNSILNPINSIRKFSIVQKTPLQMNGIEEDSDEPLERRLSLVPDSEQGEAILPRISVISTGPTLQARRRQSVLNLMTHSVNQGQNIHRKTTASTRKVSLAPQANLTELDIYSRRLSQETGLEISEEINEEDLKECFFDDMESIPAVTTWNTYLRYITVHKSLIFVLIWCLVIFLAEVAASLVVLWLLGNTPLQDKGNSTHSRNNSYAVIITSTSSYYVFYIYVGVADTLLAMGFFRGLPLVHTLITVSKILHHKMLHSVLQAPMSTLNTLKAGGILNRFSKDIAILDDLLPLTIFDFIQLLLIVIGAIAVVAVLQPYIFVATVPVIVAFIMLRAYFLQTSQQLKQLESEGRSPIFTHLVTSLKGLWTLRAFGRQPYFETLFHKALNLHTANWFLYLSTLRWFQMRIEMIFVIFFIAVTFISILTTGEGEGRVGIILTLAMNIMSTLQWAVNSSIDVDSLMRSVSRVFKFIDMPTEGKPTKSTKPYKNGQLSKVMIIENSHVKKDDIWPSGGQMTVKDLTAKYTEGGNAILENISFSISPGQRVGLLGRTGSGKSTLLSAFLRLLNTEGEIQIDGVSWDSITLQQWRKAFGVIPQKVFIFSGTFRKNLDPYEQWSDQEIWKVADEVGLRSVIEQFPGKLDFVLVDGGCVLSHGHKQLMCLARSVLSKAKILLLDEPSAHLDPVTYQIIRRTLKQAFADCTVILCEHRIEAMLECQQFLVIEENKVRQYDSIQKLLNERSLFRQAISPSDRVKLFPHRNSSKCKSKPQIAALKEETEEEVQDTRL
How it was run: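 CFBE41o- cells expressing F508delCFTR with HRP in the fourth exofacial loop, induced with 0.5 μg/mL doxycycline for 72 h at 37° C, then exposed to compound alone for 18-24 h at 33° C, 8-point 3-fold series from 20 μM. Surface HRP read by luminol luminescence, normalized to positive corrector control versus DMSO; EC50 from variable-slope sigmoidal fit of three replicate plates.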

F508delCFTR [2] = molecular target: T1, F508delCFTR; assay: Cell Surface Expression-Horse Radish Peroxidase (CSE-HRP) assay, test compound with co-corrector; type: cell-based; settings: for Maximum % activity (with co-corrector): maximum at any tested concentration;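 for Maximum % activity (with co-corrector): percent of 2 µM positive control corrector over DMSO; co-corrector is that same compound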
How it was run: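 CFBE41o- cells expressing F508delCFTR with HRP in the fourth exofacial loop, induced with 0.5 μg/mL doxycycline for 72 h, then treated 18-24 h at 33° C. with compound (8 points, top 20 μM, 3-fold) plus 2 μM co-corrector. Surface HRP read by luminol luminescence; activity normalised to positive control, EC50 from variable-slope sigmoidal fit.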

[3] = normalized to on-plate positive control
[4] = CSE-HRP assay, test compound with 2 μM co-corrector
[5] = normalized to on-plate positive control, with 2 μM co-corrector
[6] = normalized to positive control, with 2 μM co-corrector

EC50 (F508delCFTR [1]; CSE-HRP assay)	Emax (F508delCFTR [1]; [3])	EC50 (F508delCFTR [2]; [4])	Maximum % activity (with co-corrector) (F508delCFTR [2]; [5])	Emax (F508delCFTR [1]; normalized to positive control)	EC50 (F508delCFTR [1])	Maximum % activity (with co-corrector) (F508delCFTR [2]; [6])	EC50 (F508delCFTR [2]; with 2 μM co-corrector)	SMILES
3 to 10 µM	< 50%	3 to 10 µM	++ (≥150 and <350)	–	–	–	–	N#CCC1(C(=O)NS(=O)(=O)c2cccc3ccccc23)CCc2c(Cl)cccc21 (stereo not shown) [Example III-155, 4-chloro-1-(cyanomethyl)-N-(naphthalene-1-sulfonyl)-2,3-dihydro-1H-indene-1-carboxamide]
≥ 10 µM	< 50%	3 to 10 µM	++ (≥150 and <350)	–	–	–	–	N#CC1(C(=O)NS(=O)(=O)c2cccc3ccccc23)CCCc2cccc(Cl)c21 (stereo not shown) [Example III-157, 8-chloro-1-cyano-N-(naphthalene-1-sulfonyl)-1,2,3,4-tetrahydronaphthalene-1-carboxamide]
–	–	–	–	50 to 150%	3 to 10 µM	+++ (≥350)	3 to 10 µM	CC1(C(=O)NS(=O)(=O)c2ccccc2)CCc2c(Cl)cccc21 (stereo not shown) [II-1]
–	–	–	–	< 50%	3 to 10 µM	++ (≥150 and <350)	3 to 10 µM	Cc1ccccc1S(=O)(=O)NC(=O)[C@@]1(C)CCc2ccc(Cl)cc21 [II-4]
–	–	–	–	< 50%	3 to 10 µM	++ (≥150 and <350)	< 3 µM	Cc1ccccc1S(=O)(=O)NC(=O)[C@]1(C)CCc2ccc(Cl)cc21 [II-5]
–	–	–	–	50 to 150%	3 to 10 µM	++ (≥150 and <350)	3 to 10 µM	O=C(NS(=O)(=O)c1ccccc1Cl)C1CCc2c(Cl)cccc21 (stereo not shown) [II-6]
–	–	–	–	< 50%	3 to 10 µM	++ (≥150 and <350)	3 to 10 µM	Cc1ccccc1S(=O)(=O)NC(=O)C1CCCc2ccccc21 (stereo not shown) [II-7]
–	–	–	–	50 to 150%	3 to 10 µM	++ (≥150 and <350)	3 to 10 µM	COc1cccc2c1CCCC2C(=O)NS(=O)(=O)c1ccccc1C (stereo not shown) [II-8]
–	–	–	–	< 50%	≥ 10 µM	++ (≥150 and <350)	3 to 10 µM	COc1ccc2c(c1OC)CCCC2C(=O)NS(=O)(=O)c1ccccc1C (stereo not shown) [II-9]
–	–	–	–	50 to 150%	3 to 10 µM	++ (≥150 and <350)	3 to 10 µM	Cc1ccccc1S(=O)(=O)NC(=O)C1CCCc2cccc(Cl)c21 (stereo not shown) [II-10]
–	–	–	–	< 50%	≥ 10 µM	+ (<150)	3 to 10 µM	Cc1ccccc1S(=O)(=O)NC(=O)C1CCc2ccccc21 (stereo not shown) [II-11]
–	–	–	–	< 50%	3 to 10 µM	++ (≥150 and <350)	3 to 10 µM	Cc1ccccc1S(=O)(=O)NC(=O)C1CCCc2cc(F)ccc21 (stereo not shown) [II-12]
–	–	–	–	50 to 150%	3 to 10 µM	+++ (≥350)	3 to 10 µM	COc1cccc2c1CCC[C@H]2C(=O)NS(=O)(=O)c1ccccc1C [II-13]
–	–	–	–	< 50%	3 to 10 µM	++ (≥150 and <350)	3 to 10 µM	Cc1ccccc1S(=O)(=O)NC(=O)[C@H]1CCCc2ccccc21 [II-14]
–	–	–	–	< 50%	≥ 10 µM	+ (<150)	3 to 10 µM	COc1cc2c(cc1OC)C(C(=O)NS(=O)(=O)c1ccccc1C)CCC2 (stereo not shown) [II-15]
–	–	–	–	< 50%	3 to 10 µM	++ (≥150 and <350)	3 to 10 µM	COc1cccc2c1CC(C(=O)NS(=O)(=O)c1ccccc1C)C2 (stereo not shown) [II-16]
–	–	–	–	< 50%	3 to 10 µM	++ (≥150 and <350)	3 to 10 µM	Cc1ccccc1S(=O)(=O)NC(=O)[C@@H]1CCCc2ccccc21 [II-17]

EC50 (F508delCFTR [1]; CSE-HRP assay)	Emax (F508delCFTR [1]; [3])	EC50 (F508delCFTR [2]; [4])	Maximum % activity (with co-corrector) (F508delCFTR [2]; [5])	Emax (F508delCFTR [1]; normalized to positive control)	EC50 (F508delCFTR [1])	Maximum % activity (with co-corrector) (F508delCFTR [2]; [6])	EC50 (F508delCFTR [2]; with 2 μM co-corrector)	SMILES
–	–	–	–	< 50%	3 to 10 µM	++ (≥150 and <350)	3 to 10 µM	COc1ccc2c(c1)[C@@](C)(C(=O)NS(=O)(=O)c1ccccc1C)CC2 [II-18]
–	–	–	–	50 to 150%	3 to 10 µM	++ (≥150 and <350)	3 to 10 µM	Cc1ccccc1S(=O)(=O)NC(=O)C1(C)CCc2cccc(Cl)c21 (stereo not shown) [II-19]
–	–	–	–	< 50%	3 to 10 µM	++ (≥150 and <350)	3 to 10 µM	Cc1ccccc1S(=O)(=O)NC(=O)C1(C)CCc2c1ccc(F)c2F (stereo not shown) [II-20]
–	–	–	–	< 50%	3 to 10 µM	++ (≥150 and <350)	3 to 10 µM	Cc1ccccc1S(=O)(=O)NC(=O)C1(C)CCc2ccccc21 (stereo not shown) [II-21]
–	–	–	–	50 to 150%	3 to 10 µM	++ (≥150 and <350)	3 to 10 µM	Cc1ccc2c(c1)CCC2(C)C(=O)NS(=O)(=O)c1ccccc1C (stereo not shown) [II-22]
–	–	–	–	< 50%	3 to 10 µM	++ (≥150 and <350)	3 to 10 µM	CCc1ccccc1S(=O)(=O)NC(=O)C1CCc2c(OC)cccc21 (stereo not shown) [II-24]
–	–	–	–	50 to 150%	3 to 10 µM	++ (≥150 and <350)	3 to 10 µM	CCc1ccccc1S(=O)(=O)NC(=O)C1CCc2c(Cl)cccc21 (stereo not shown) [II-25]
–	–	–	–	< 50%	≥ 10 µM	++ (≥150 and <350)	3 to 10 µM	O=C(NS(=O)(=O)c1cccc(Cl)c1)C1CCc2c(Cl)cccc21 (stereo not shown) [II-26]
–	–	–	–	< 50%	≥ 10 µM	++ (≥150 and <350)	3 to 10 µM	O=C(NS(=O)(=O)c1ccc(Cl)cc1)C1CCc2c(Cl)cccc21 (stereo not shown) [II-27]
–	–	–	–	< 50%	3 to 10 µM	++ (≥150 and <350)	3 to 10 µM	O=C(NS(=O)(=O)c1ccccc1F)C1CCc2c(Cl)cccc21 (stereo not shown) [II-28]
–	–	–	–	< 50%	3 to 10 µM	++ (≥150 and <350)	3 to 10 µM	COc1cccc2c1CCC2C(=O)NS(=O)(=O)c1ccccc1Cl (stereo not shown) [II-30]
–	–	–	–	< 50%	3 to 10 µM	++ (≥150 and <350)	3 to 10 µM	COc1cccc2c1CCC2C(=O)NS(=O)(=O)c1ccccc1[N+](=O)[O-] (stereo not shown) [II-31]
–	–	–	–	< 50%	< 3 µM	++ (≥150 and <350)	< 3 µM	CCC1(C(=O)NS(=O)(=O)c2ccccc2C)CCc2c(Cl)cccc21 (stereo not shown) [II-32]
–	–	–	–	50 to 150%	3 to 10 µM	+++ (≥350)	3 to 10 µM	Cc1ccccc1S(=O)(=O)NC(=O)C1CCc2c(Br)cccc21 (stereo not shown) [II-33]
–	–	–	–	< 50%	3 to 10 µM	++ (≥150 and <350)	3 to 10 µM	Cc1ccccc1S(=O)(=O)NC(=O)C1CCc2c(C3=CCOCC3)cccc21 (stereo not shown) [II-34]
–	–	–	–	50 to 150%	3 to 10 µM	++ (≥150 and <350)	3 to 10 µM	Cc1ccccc1S(=O)(=O)NC(=O)C1CCc2c(C3CCC3)cccc21 (stereo not shown) [II-35]
–	–	–	–	< 50%	3 to 10 µM	++ (≥150 and <350)	3 to 10 µM	COc1cccc2c1CCC2C(=O)NS(=O)(=O)c1ccccc1C(F)(F)F (stereo not shown) [II-37]
